The target of one assay is rat P2X7 (Rattus norvegicus (Rat), UniProt Q64663). The assay is described as follows: Ca2+ flux (FLIPR) in 1321N1 cells expressing recombinant rat P2X7 channel. In kind it is cell-based. Conditions: 250 μM BzATP, Calcium-4 dye. The protocol: 1321N1 cells expressing the recombinant human, rat or mouse P2X7 channel was cultured in HyQ DME/(HyClone/Dulbecco's Modified Eagle Medium) high glucose supplemented with 10% Fetal Bovine Serum (FBS) and appropriate selection marker. Cells were seeded at a density of 25000 cells/well (96-well clear bottom black walled plates) in 100 μl volume/well. On the day of the experiment, cell plates were washed with assay buffer, containing (in mM): 130 NaCl, 2 KCl, 1 CaCl2, 1 MgCl2, 10 HEPES, 5 glucose; pH 7.40 and 300 mOs. After the wash, cells were loaded with the Calcium-4 dye (Molecular Device) and incubated in the dark for 60 minutes. Test compounds were prepared at 250× the test concentration in neat DMSO. Intermediate 96-well compound plates were prepared by transferring 1.2 μL of the compound into 300 μL of assay buffer. A further 3× dilution occurred when transferring 50 μL/well of the compound plate to 100 μL/well in the cell plate. Cells were incubated with test compounds and dye for 30 minutes. […] The fluorescence change was measured 180 seconds after adding the agonist.
Sequence of rat P2X7 (Q64663 whole entry): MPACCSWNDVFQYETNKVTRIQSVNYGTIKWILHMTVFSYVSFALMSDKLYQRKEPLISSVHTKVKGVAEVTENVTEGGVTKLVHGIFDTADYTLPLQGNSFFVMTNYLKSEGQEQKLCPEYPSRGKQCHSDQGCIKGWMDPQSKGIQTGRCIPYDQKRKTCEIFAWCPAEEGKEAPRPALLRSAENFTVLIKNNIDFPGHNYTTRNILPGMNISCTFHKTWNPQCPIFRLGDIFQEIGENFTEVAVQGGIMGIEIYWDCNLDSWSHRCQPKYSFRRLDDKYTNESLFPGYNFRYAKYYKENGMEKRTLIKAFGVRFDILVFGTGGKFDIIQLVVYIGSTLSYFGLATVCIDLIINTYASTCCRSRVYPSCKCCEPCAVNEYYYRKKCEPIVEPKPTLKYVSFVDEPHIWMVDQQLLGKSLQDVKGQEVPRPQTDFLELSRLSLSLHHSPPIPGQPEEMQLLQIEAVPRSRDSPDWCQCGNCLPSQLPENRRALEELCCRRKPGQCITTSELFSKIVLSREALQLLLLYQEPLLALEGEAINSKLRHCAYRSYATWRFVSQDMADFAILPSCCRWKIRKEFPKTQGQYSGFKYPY

Another assay deals with P2X7 (Homo sapiens (Human), UniProt Q99572). In words: P2X7 antagonism in human PBMCs (IL-1β release, ELISA). Particulars: test compound 10 μM, IL-1β release in human PBMCs, LPS 30 ng/ml + Bz-ATP 0.5 mM, read-out: PBMC 10 μM (% control). The class given is cell-based. The protocol:
Human blood was collected using a blood donor program. […] Cells were incubated for an additional 1.5 hours. […] In Table 2, when the data cell has been left blank, it is intended to mean that the compound was not tested in that assay.

Sequence of P2X7 (Q99572 whole entry): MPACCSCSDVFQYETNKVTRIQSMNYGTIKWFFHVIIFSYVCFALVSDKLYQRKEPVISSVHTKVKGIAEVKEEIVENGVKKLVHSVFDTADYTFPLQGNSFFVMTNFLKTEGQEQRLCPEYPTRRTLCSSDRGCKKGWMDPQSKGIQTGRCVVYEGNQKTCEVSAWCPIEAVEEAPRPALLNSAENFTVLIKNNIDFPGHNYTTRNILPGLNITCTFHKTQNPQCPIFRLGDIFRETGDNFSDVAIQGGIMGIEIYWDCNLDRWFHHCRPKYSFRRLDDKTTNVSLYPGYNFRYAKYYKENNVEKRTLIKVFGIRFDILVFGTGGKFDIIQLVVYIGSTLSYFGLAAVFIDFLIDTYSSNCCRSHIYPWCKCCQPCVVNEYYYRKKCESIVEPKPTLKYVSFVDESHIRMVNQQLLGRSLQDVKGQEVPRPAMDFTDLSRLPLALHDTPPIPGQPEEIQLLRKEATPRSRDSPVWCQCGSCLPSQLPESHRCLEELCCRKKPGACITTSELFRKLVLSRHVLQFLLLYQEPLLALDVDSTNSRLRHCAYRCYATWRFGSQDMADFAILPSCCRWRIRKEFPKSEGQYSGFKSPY

For `Cc1nc2c(c(-c3ccn[nH]3)n1)C[C@@H](C)N(C(=O)c1cccc(Cl)c1Cl)C2` (single isomer, unassigned) [Example 68, (R*)-(2,3-dichlorophenyl)(2,6-dimethyl-4-(1H-pyrazol-5-yl)-5,6-dihydropyrido[3,4-d]pyrimidin-7(8H)-yl)methanone], at rat P2X7, the IC50 turned out to be 8.8 nM.

With `Cc1nc2c(c(-c3ccn[nH]3)n1)C[C@H](C)N(C(=O)c1cccc(Cl)c1Cl)C2` (single isomer, unassigned) [Example 69, (S*)-(2,3-dichlorophenyl)(2,6-dimethyl-4-(1H-pyrazol-5-yl)-5,6-dihydropyrido[3,4-d]pyrimidin-7(8H)-yl)methanone], the 50% inhibitory concentration (IC50) on rat P2X7 worked out at 938 nM.

As to `Cc1nc2c(c(-c3ccn[nH]3)n1)C[C@@H](C)N(C(=O)c1ccc(F)cc1Cl)C2` (single isomer, unassigned) [Example 91, (R*)-(2-chloro-4-fluorophenyl)(2,6-dimethyl-4-(1H-pyrazol-5-yl)-5,6-dihydropyrido[3,4-d]pyrimidin-7(8H)-yl)methanone], the IC50 at rat P2X7 was 132 nM.

In the case of `Cc1nc2c(c(-c3ccn[nH]3)n1)C[C@H](C)N(C(=O)c1ccc(F)cc1Cl)C2` (single isomer, unassigned) [Example 92, (S*)-(2-chloro-4-fluorophenyl)(2,6-dimethyl-4-(1H-pyrazol-5-yl)-5,6-dihydropyrido[3,4-d]pyrimidin-7(8H)-yl)methanone], at rat P2X7, the IC50 turned out to be 5960 nM.

With `C[C@@H]1c2ncnc(-c3ccn[nH]3)c2CCN1C(=O)c1cccc(C(F)(F)F)c1Cl` (single isomer, unassigned) [Example 113, (R*)-(2-chloro-3-(trifluoromethyl)phenyl)(8-methyl-4-(1H-pyrazol-5-yl)-5,6-dihydropyrido[3,4-d]pyrimidin-7(8H)-yl)methanone], the IC50 on rat P2X7 came out at 9.1 nM.

Turning to `C[C@H]1c2ncnc(-c3ccn[nH]3)c2CCN1C(=O)c1cccc(C(F)(F)F)c1Cl` (single isomer, unassigned) [Example 114, (S*)-(2-chloro-3-(trifluoromethyl)phenyl)(8-methyl-4-(1H-pyrazol-5-yl)-5,6-dihydropyrido[3,4-d]pyrimidin-7(8H)-yl)methanone], on rat P2X7, the IC50 was found to be 166 nM.

For `C[C@@H]1c2ncnc(-c3ccn[nH]3)c2CCN1C(=O)c1ccc(F)c(Cl)c1Cl` (single isomer, unassigned) [Example 119, (R*)-(2,3-dichloro-4-fluorophenyl)(8-methyl-4-(1H-pyrazol-5-yl)-5,6-dihydropyrido[3,4-d]pyrimidin-7(8H)-yl)methanone], the IC50 at rat P2X7 came out at 28.4 nM.

`C[C@H]1c2ncnc(-c3ccn[nH]3)c2CCN1C(=O)c1ccc(F)c(Cl)c1Cl` (single isomer, unassigned) [Example 120, (S*)-(2,3-dichloro-4-fluorophenyl)(8-methyl-4-(1H-pyrazol-5-yl)-5,6-dihydropyrido[3,4-d]pyrimidin-7(8H)-yl)methanone]: at rat P2X7, the IC50 worked out at 1510 nM.

Take `Cc1nc2c(c(-c3ccn(CCF)n3)n1)C[C@H](C)N(C(=O)c1cccc(C(F)(F)F)c1Cl)C2` (single isomer, unassigned) [Example 125, (S*)-(2-chloro-3-(trifluoromethyl)phenyl)(4-(1-(2-fluoroethyl)-1H-pyrazol-3-yl)-2,6-dimethyl-5,6-dihydropyrido[3,4-d]pyrimidin-7(8H)-yl)methanone]: on P2X7, the remaining activity at 10 µM stood at 64.7%.

With `Cc1cccc(C(=O)N2CCc3c(ncnc3-c3cnn(C)c3)C2)c1Cl` [Example 6, 7-[(2-Chloro-3-methylphenyl)carbonyl]-4-(1-methyl-1H-pyrazol-4-yl)-5,6,7,8-tetrahydropyrido[3,4-d]pyrimidine], the remaining activity at 10 µM at P2X7 was 49.5%.

In the case of `Cc1cccc(C(=O)N2CCc3c(ncnc3-c3ccn[nH]3)C2)c1Cl` [Example 8, 7-[(2-Chloro-3-methylphenyl)carbonyl]-4-(1H-pyrazol-5-yl)-5,6,7,8-tetrahydropyrido[3,4-d]pyrimidine], the IC50 on rat P2X7 was more than 10000 nM.

In the case of `Cc1cccc(C(=O)N2CCc3c(ncnc3-c3ccn[nH]3)C2)c1C` [Example 9, 7-[(2,3-Dimethylphenyl)carbonyl]-4-(1H-pyrazol-5-yl)-5,6,7,8-tetrahydropyrido[3,4-d]pyrimidine], the remaining activity at 10 µM on P2X7 came to 9.8%.

Consider `Cc1cccc(C(=O)N2CCc3c(ncnc3-c3ccccn3)C2)c1Cl` [Example 13, 7-[(2-Chloro-3-methylphenyl)carbonyl]-4-pyridin-2-yl-5,6,7,8-tetrahydropyrido[3,4-d]pyrimidine], for which, on P2X7, the remaining activity at 10 µM was 13.4%.

Take `O=C(c1cccc(C(F)(F)F)c1Cl)N1CCc2c(ncnc2-c2ccnn2C2CCCCO2)C1` (stereo not drawn) [Example 17, 7-{[2-Chloro-3-(trifluoromethyl)phenyl]carbonyl}-4-[1-(tetrahydro-2H-pyran-2-yl)-1H-pyrazol-5-yl]-5,6,7,8-tetrahydropyrido[3,4-d]pyrimidine]: the remaining activity at 10 µM at P2X7 amounted to 9.9%.

For `CN(C)c1nc2c(c(-c3ccccc3)n1)CCN(C(=O)c1cccc(Cl)c1Cl)C2` [Example 25, 7-[(2,3-Dichlorophenyl)carbonyl]-N,N-dimethyl-4-phenyl-5,6,7,8-tetrahydropyrido[3,4-d]pyrimidin-2-amine], the remaining activity at 10 µM at P2X7 turned out to be 10.8%.

As for `CN(C)c1nc2c(c(-c3ccccc3)n1)CCN(C(=O)c1cccc(C(F)(F)F)c1Cl)C2` [Example 26, 7-{[2-Chloro-3-(trifluoromethyl)phenyl]carbonyl}-N,N-dimethyl-4-phenyl-5,6,7,8-tetrahydropyrido[3,4-d]pyrimidin-2-amine], the remaining activity at 10 µM on P2X7 turned out to be 16.1%.

For `Cc1nc2c(c(-c3ccccn3)n1)CCN(C(=O)c1cccc(C(F)(F)F)c1Cl)C2` [Example 30, 7-{[2-Chloro-3-(trifluoromethyl)phenyl]carbonyl}-2-methyl-4-pyridin-2-yl-5,6,7,8-tetrahydropyrido[3,4-d]pyrimidine], the remaining activity at 10 µM at P2X7 is 21%.

Consider `Cc1nc2c(c(-c3ccccn3)n1)CCN(C(=O)c1cccc(Cl)c1Cl)C2` [Example 31, 7-[(2,3-Dichlorophenyl)carbonyl]-2-methyl-4-pyridin-2-yl-5,6,7,8-tetrahydropyrido[3,4-d]pyrimidine], for which the remaining activity at 10 µM at P2X7 was found to be 9.2%.

With `Cc1nc2c(c(-c3[nH]ncc3C(F)(F)F)n1)CCN(C(=O)c1cccc(Cl)c1Cl)C2` [Example 40, 7-[(2,3-Dichlorophenyl)carbonyl]-2-methyl-4-[4-(trifluoromethyl)-1H-pyrazol-5-yl]-5,6,7,8-tetrahydropyrido[3,4-d]pyrimidine], the remaining activity at 10 µM on P2X7 stood at 12.9%.

For `Cc1nc2c(c(-c3ccc[nH]3)n1)CCN(C(=O)c1cccc(C(F)(F)F)c1Cl)C2` [Example 45, 7-{[2-Chloro-3-(trifluoromethyl)phenyl]carbonyl}-2-methyl-4-(1H-pyrrol-2-yl)-5,6,7,8-tetrahydropyrido[3,4-d]pyrimidine], the remaining activity at 10 µM at P2X7 was 7.1%.

As for `Cc1nc2c(c(-c3c(C)noc3C)n1)CCN(C(=O)c1cccc(C(F)(F)F)c1Cl)C2` [Example 46, 7-{[2-Chloro-3-(trifluoromethyl)phenyl]carbonyl}-4-(3,5-dimethylisoxazol-4-yl)-2-methyl-5,6,7,8-tetrahydropyrido[3,4-d]pyrimidine], the remaining activity at 10 µM on P2X7 was found to be 100%.

In the case of `Cc1nc2c(c(-n3nccn3)n1)CCN(C(=O)c1cccc(C(F)(F)F)c1Cl)C2` [Example 47, 7-{[2-Chloro-3-(trifluoromethyl)phenyl]carbonyl}-2-methyl-4-(2H-1,2,3-triazol-2-yl)-5,6,7,8-tetrahydropyrido[3,4-d]pyrimidine], on rat P2X7, the concentration for half-maximal inhibition (IC50) was 7.9 nM.

For `Cc1nc2c(c(-c3cnoc3)n1)CCN(C(=O)c1cccc(C(F)(F)F)c1Cl)C2` [Example 49, 7-{[2-Chloro-3-(trifluoromethyl)phenyl]carbonyl}-4-isoxazol-4-yl-2-methyl-5,6,7,8-tetrahydropyrido[3,4-d]pyrimidine], the remaining activity at 10 µM on P2X7 was 16.3%.

Consider `Cc1noc(C)c1-c1ncnc2c1CCN(C(=O)c1cccc(C(F)(F)F)c1Cl)C2` [Example 50, 7-{[2-Chloro-3-(trifluoromethyl)phenyl]carbonyl}-4-(3,5-dimethylisoxazol-4-yl)-5,6,7,8-tetrahydropyrido[3,4-d]pyrimidine], for which the remaining activity at 10 µM on P2X7 turned out to be 83.5%.

As to `Cc1nc2c(c(-c3ccn[nH]3)n1)CCN(C(=O)c1cccc(C(F)(F)F)c1F)C2` [Example 51, 7-{[2-Fluoro-3-(trifluoromethyl)phenyl]carbonyl}-2-methyl-4-(1H-pyrazol-5-yl)-5,6,7,8-tetrahydropyrido[3,4-d]pyrimidine], the remaining activity at 10 µM at P2X7 is 17.3%.

Turning to `Cc1nc2c(c(-c3ccn[nH]3)n1)CCN(C(=O)c1cccc(C(F)(F)F)c1C)C2` [Example 52, 2-Methyl-7-{[2-methyl-3-(trifluoromethyl)phenyl]carbonyl}-4-(1H-pyrazol-5-yl)-5,6,7,8-tetrahydropyrido[3,4-d]pyrimidine], the remaining activity at 10 µM at P2X7 came out at 9.3%.

Take `Cc1nc2c(c(-c3ccn[nH]3)n1)CC(C)N(C(=O)c1cccc(C(F)(F)F)c1Cl)C2` (stereo not drawn) [Example 56, 7-{[2-Chloro-3-(trifluoromethyl)phenyl]carbonyl}-2,6-dimethyl-4-(1H-pyrazol-5-yl)-5,6,7,8-tetrahydropyrido[3,4-d]pyrimidine]: the remaining activity at 10 µM on P2X7 amounted to 10.2%.

The values above are taken from patent publication US9096596B2 (Janssen Pharmaceutica NV, priority 2013, dated 2015).
